Laboratory results from PubChem BioAssay AID1963836 (Molecular Pharmacology Branch, DTP, NCI, 2024).

Test system: 857933-349-R-J2-PDC complex spheroid viability
Assay: Anticancer human tumor 857933-349-R-J2-PDC patient-derived colon adenocarcinoma cell line growth inhibition [POLQ]
Conditions: for IC50: curve of first compound; for viability, T/C: stronger effect = lower value; active = viability on the fitted dose curve at most 10% of control; inactive = the rest
Method in brief: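 Complex spheroid viability model combining PDC tumour cells with endothelial (HUVEC) and MSC stromal cells. Novobiocin, ART-558 or RP6685 were tested singly and in combination with standard and investigational anticancer drugs. Each was titrated in half-log steps from near clinical Cmax, or from 10 microM where Cmax was unknown.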

[1] = second compound 0.0316 µM, first compound 0.0316 µM
[2] = second compound 0.0316 µM, first compound 0.1 µM
[3] = second compound 0.0316 µM, first compound 0.316 µM
[4] = second compound 0.0316 µM, first compound 1 µM
[5] = second compound 0.0316 µM, first compound 3.16 µM
[6] = second compound 0.0316 µM, first compound 10 µM
[7] = second compound 0.1 µM, first compound 0.0316 µM
[8] = second compound 0.1 µM, first compound 0.1 µM
[9] = second compound 0.1 µM, first compound 0.316 µM
[10] = second compound 0.1 µM, first compound 1 µM
[11] = second compound 0.1 µM, first compound 3.16 µM
[12] = second compound 0.1 µM, first compound 10 µM
[13] = second compound 0.316 µM, first compound 0.0316 µM
[14] = second compound 0.316 µM, first compound 0.1 µM
[15] = second compound 0.316 µM, first compound 0.316 µM
[16] = second compound 0.316 µM, first compound 1 µM
[17] = second compound 0.316 µM, first compound 3.16 µM
[18] = second compound 0.316 µM, first compound 10 µM
[19] = second compound 1 µM, first compound 0.0316 µM
[20] = second compound 1 µM, first compound 0.1 µM
[21] = second compound 1 µM, first compound 0.316 µM
[22] = second compound 1 µM, first compound 1 µM
[23] = second compound 1 µM, first compound 3.16 µM
[24] = second compound 1 µM, first compound 10 µM
[25] = second compound 3.16 µM, first compound 0.0316 µM
[26] = second compound 3.16 µM, first compound 0.1 µM
[27] = second compound 3.16 µM, first compound 0.316 µM
[28] = second compound 3.16 µM, first compound 1 µM
[29] = second compound 3.16 µM, first compound 3.16 µM
[30] = second compound 3.16 µM, first compound 10 µM
[31] = second compound 10 µM, first compound 0.0316 µM
[32] = second compound 10 µM, first compound 0.1 µM
[33] = second compound 10 µM, first compound 0.316 µM
[34] = second compound 10 µM, first compound 1 µM
[35] = second compound 10 µM, first compound 3.16 µM
[36] = second compound 10 µM, first compound 10 µM
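Also: spheroids exposed to compounds for seven days before readout.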

C=CC(=O)N1CCN(c2nc(=O)n(-c3c(C)ccnc3C(C)C)c3nc(-c4c(O)cccc4F)c(F)cc23)C(C)C1 (stereo not given) + Nc1ccc(C#CCN(C(=O)Cc2ncc(C(F)(F)F)cc2C(F)(F)F)c2ccc(F)cc2)nn1
> 10 µM: IC50 (second compound 0.0316 µM) | IC50 (second compound 0.1 µM) | IC50 (second compound 0.316 µM) | IC50 (second compound 1 µM) | IC50 (second compound 3.16 µM) | IC50 (second compound 10 µM)
inactive: viability, T/C [1] 90.6% | viability, T/C [2] 101% | viability, T/C [3] 113% | viability, T/C [4] 98.6% | viability, T/C [5] 113% | viability, T/C [6] 87.6% | viability, T/C [7] 99.3% | viability, T/C [8] 90.7% | viability, T/C [9] 105% | viability, T/C [10] 100% | viability, T/C [11] 98.9% | viability, T/C [12] 95.5% | viability, T/C [13] 107% | viability, T/C [14] 98.5% | viability, T/C [15] 98.3% | viability, T/C [16] 112% | viability, T/C [17] 93.1% | viability, T/C [18] 83.5% | viability, T/C [19] 111% | viability, T/C [20] 107% | viability, T/C [21] 97.6% | viability, T/C [22] 100% | viability, T/C [23] 110% | viability, T/C [24] 97.2% | viability, T/C [25] 103% | viability, T/C [26] 88.8% | viability, T/C [27] 96.4% | viability, T/C [28] 101% | viability, T/C [29] 108% | viability, T/C [30] 98.5% | viability, T/C [31] 81.2% | viability, T/C [32] 101% | viability, T/C [33] 98.9% | viability, T/C [34] 92.6% | viability, T/C [35] 112% | viability, T/C [36] 95.3%

CC(C)n1c(=O)n(C)c2cnc3cc(F)c(-c4ccc(OCCCN5CCCCC5)nc4)cc3c21 + Nc1ccc(C#CCN(C(=O)Cc2ncc(C(F)(F)F)cc2C(F)(F)F)c2ccc(F)cc2)nn1
> 10 µM: IC50 (second compound 0.0316 µM) | IC50 (second compound 0.1 µM) | IC50 (second compound 0.316 µM) | IC50 (second compound 1 µM) | IC50 (second compound 3.16 µM) | IC50 (second compound 10 µM)
inactive: viability, T/C [1] 88.3% | viability, T/C [2] 89% | viability, T/C [3] 103% | viability, T/C [4] 106% | viability, T/C [5] 93.7% | viability, T/C [6] 98.8% | viability, T/C [7] 99.5% | viability, T/C [8] 109% | viability, T/C [9] 111% | viability, T/C [10] 116% | viability, T/C [11] 118% | viability, T/C [12] 100% | viability, T/C [13] 108% | viability, T/C [14] 106% | viability, T/C [15] 103% | viability, T/C [16] 98.7% | viability, T/C [17] 105% | viability, T/C [18] 98% | viability, T/C [19] 107% | viability, T/C [20] 95.9% | viability, T/C [21] 107% | viability, T/C [22] 114% | viability, T/C [23] 95.2% | viability, T/C [24] 84.7% | viability, T/C [25] 91.7% | viability, T/C [26] 99.9% | viability, T/C [27] 103% | viability, T/C [28] 115% | viability, T/C [29] 111% | viability, T/C [30] 91.5% | viability, T/C [31] 86.4% | viability, T/C [32] 102% | viability, T/C [33] 114% | viability, T/C [34] 89.3% | viability, T/C [35] 98.1% | viability, T/C [36] 92.6%

CC1COCCN1c1cc(-c2ccnn2C)c2ccnc(-c3ccn[nH]3)c2n1 (stereo not given) + Nc1ccc(C#CCN(C(=O)Cc2ncc(C(F)(F)F)cc2C(F)(F)F)c2ccc(F)cc2)nn1
0.272 µM: IC50 (second compound 3.16 µM)
0.739 µM: IC50 (second compound 0.316 µM)
0.812 µM: IC50 (second compound 0.0316 µM)
inactive: viability, T/C [1] 76.4% | viability, T/C [2] 65.6% | viability, T/C [3] 62.1% | viability, T/C [4] 50.3% | viability, T/C [5] 32.5% | viability, T/C [6] 43.8% | viability, T/C [7] 71.5% | viability, T/C [8] 65.3% | viability, T/C [9] 53% | viability, T/C [10] 47.9% | viability, T/C [11] 30.9% | viability, T/C [12] 42.8% | viability, T/C [13] 81.1% | viability, T/C [14] 78.5% | viability, T/C [15] 56.2% | viability, T/C [16] 51.4% | viability, T/C [17] 37.3% | viability, T/C [18] 41.3% | viability, T/C [19] 74.9% | viability, T/C [20] 61.9% | viability, T/C [21] 51.5% | viability, T/C [22] 49% | viability, T/C [23] 36.9% | viability, T/C [24] 45.6% | viability, T/C [25] 76.4% | viability, T/C [26] 68.2% | viability, T/C [27] 47.4% | viability, T/C [28] 42.9% | viability, T/C [29] 42.8% | viability, T/C [30] 46.7% | viability, T/C [31] 78.2% | viability, T/C [32] 62.1% | viability, T/C [33] 54.8% | viability, T/C [34] 45.3% | viability, T/C [35] 47.2% | viability, T/C [36] 45.5%
0.648 µM: IC50 (second compound 10 µM)
0.495 µM: IC50 (second compound 0.1 µM)
0.445 µM: IC50 (second compound 1 µM)

CCc1cc2c(N3CCc4c(cc(Cn5ccnc5)cc4-c4cn(C)nc4C(F)(F)F)C3=O)ccnc2c(OC)n1 + Nc1ccc(C#CCN(C(=O)Cc2ncc(C(F)(F)F)cc2C(F)(F)F)c2ccc(F)cc2)nn1
6.06 µM: IC50 (second compound 10 µM)
> 10 µM: IC50 (second compound 0.0316 µM) | IC50 (second compound 0.1 µM) | IC50 (second compound 0.316 µM) | IC50 (second compound 1 µM) | IC50 (second compound 3.16 µM)
inactive: viability, T/C [1] 93.9% | viability, T/C [2] 96.4% | viability, T/C [3] 76.3% | viability, T/C [4] 87.7% | viability, T/C [5] 59.2% | viability, T/C [6] 59.2% | viability, T/C [7] 97.3% | viability, T/C [8] 101% | viability, T/C [9] 94.5% | viability, T/C [10] 93% | viability, T/C [11] 70% | viability, T/C [12] 58.5% | viability, T/C [13] 82% | viability, T/C [14] 86% | viability, T/C [15] 94.5% | viability, T/C [16] 84.1% | viability, T/C [17] 77% | viability, T/C [18] 55.1% | viability, T/C [19] 97.6% | viability, T/C [20] 90.2% | viability, T/C [21] 95.1% | viability, T/C [22] 77.2% | viability, T/C [23] 71.1% | viability, T/C [24] 65.3% | viability, T/C [25] 97.6% | viability, T/C [26] 89.9% | viability, T/C [27] 104% | viability, T/C [28] 83% | viability, T/C [29] 68.3% | viability, T/C [30] 62.8% | viability, T/C [31] 83.5% | viability, T/C [32] 77.3% | viability, T/C [33] 79.6% | viability, T/C [34] 75.7% | viability, T/C [35] 54.4% | viability, T/C [36] 46.6%

COc1ccc([C@@H](O)c2cc(-c3ncnc4cc(N5CCOCC5)ccc34)c(F)cc2Cl)nn1 + Nc1ccc(C#CCN(C(=O)Cc2ncc(C(F)(F)F)cc2C(F)(F)F)c2ccc(F)cc2)nn1
inactive: viability, T/C [1] 86.3% | viability, T/C [2] 104% | viability, T/C [3] 103% | viability, T/C [4] 92.6% | viability, T/C [5] 77.2% | viability, T/C [6] 56.2% | viability, T/C [7] 91.4% | viability, T/C [8] 100% | viability, T/C [9] 96.8% | viability, T/C [10] 84.3% | viability, T/C [11] 78.6% | viability, T/C [12] 60.8% | viability, T/C [13] 84.6% | viability, T/C [14] 91.2% | viability, T/C [15] 81.2% | viability, T/C [16] 94.7% | viability, T/C [17] 80.7% | viability, T/C [18] 48.7% | viability, T/C [19] 96.8% | viability, T/C [20] 89.3% | viability, T/C [21] 93.4% | viability, T/C [22] 76.6% | viability, T/C [23] 84.5% | viability, T/C [24] 59.6% | viability, T/C [25] 88.2% | viability, T/C [26] 95.8% | viability, T/C [27] 86.5% | viability, T/C [28] 84.1% | viability, T/C [29] 75.3% | viability, T/C [30] 60% | viability, T/C [31] 99.9% | viability, T/C [32] 89.8% | viability, T/C [33] 95.3% | viability, T/C [34] 76.3% | viability, T/C [35] 76.8% | viability, T/C [36] 51.6%
9.69 µM: IC50 (second compound 0.316 µM)
> 10 µM: IC50 (second compound 0.0316 µM) | IC50 (second compound 0.1 µM) | IC50 (second compound 1 µM) | IC50 (second compound 3.16 µM) | IC50 (second compound 10 µM)
